Experimental data: patent US11648199B2 (AI Therapeutics, Inc, priority 2014, dated 2023)
“And” between values parts separate entries of the source, which are not always exact repeats. Identical values can stand only once. Like-named read-outs stand apart in the source and are kept apart here.

How the values were obtained:
[1] = tested on: S6 phosphorylation (mTOR pathway); test: Phosphorylated S6 by western blot in AML cells; type: cell-based, human; conditions: 20 nM, 24 hours (FIG. 7, top)
[2] = Biodistribution of rapamycin via inhalation, first study (single dose and 5 days)
[3] = clinical use; cited from earlier work
[4] = tested on: Phospho-S6 Ribosomal Protein (Ser240/244); test: S6-P/total S6 western blot of rat lung homogenates after inhalation; type: in vivo, Sprague-Dawley rats; conditions: inhaled, target dose 0.354 mg/kg (FIG. 8B)
Method: Lungs samples from each animal were collected and snap frozen. The individual frozen lung samples were homogenized (Qiagen TissueLyser LT according to manufacturer's protocols) in 1×RIPA Buffer with protease and phosphatase inhibitors. […] The Western blot images were analyzed by NIH imageJ v1.48 to generate the respective antibody reactivity/intensity and create the ratio of S6 phosphorylation (S6-P) to total S6 intensities for each lung sample. The S6-P/total S6 ratios (y-axis) for sample organized by timepoint group (X-axis) were plotted on a one grouping variable scatter plot vertical graph (GraphPad, version 4.0), all samples in groups are represented by filled in black dots (●) on the graph and average is shown by the horizontal line between the dots within each respective group (FIG. 8B).

[5] = IV 10 mg/kg, 24 hours after single dose; cited from earlier work
[6] = Particle size distribution by laser diffraction after size reduction; type: physicochemical
Method: For jet milling, a lab scale MCOne unit from Jetpharma was used with the following operating conditions: venturi pressure 2-4 bar, milling pressure 3-5 bar, feed rate 90 g/h. For wet polishing, feed suspensions were prepared using purified water. A microfluidics high pressure homogenizer was used for the size reduction step and the resulting suspension was spray-dried. Details of the wet polishing process are set forth below.
The high pressure homogenizer used for the size reduction step of the wet polishing process was a pilot-scale Microfluidics High Pressure Homogenizer equipped with an auxiliary processing module (200 micron) and a 100 micron interaction chamber was used. The unit was operated at ˜455 bar (˜30 bar in the intensifier module hydraulic pressure). After microfluidization the fluid was removed by spray drying to generate a dry powder. A laboratory scale spray dryer, SD45 (BÜCHI, model B-290 Advanced) was equipped with a two fluid nozzle (cap and diameter were 1.4 and 0.7 mm, respectively). Two cyclones in series were used (being the first the standard Buchi cyclone and the second the high-performance Buchi cyclone) to collect the dried product. The spray drying unit was operated with nitrogen and in single pass mode, i.e. without recirculation of the drying nitrogen. The aspirator, blowing nitrogen, was set at 100% of its capacity (flow rate at maximum capacity is approximately 40 kg/h). The flow rate of the atomization nitrogen was adjusted to a value in the rotameter of 40±5 mm. Before feeding the product suspension, the spray dryer was stabilized with purified water, during which the flow rate was adjusted to 6 ml/min (20% in the peristaltic pump). The inlet temperature was adjusted to achieve the target outlet temperature (45° C.). After stabilization of the temperatures, the feed of the spray dryer was commuted from purified water to the product suspension (keeping the same flow rate used during stabilization) and the inlet temperature once again adjusted in order to achieve the target outlet temperature. At the end of the stock suspension, the feed was once more commuted to purified water in order to rinse the feed line and perform a controlled shut down. The dry product in the collection flasks under both cyclones was weighed and the yield calculated as the mass percentage of the dry product in relation to the total solids in the suspension fed to the high pressure homogenizer.
Particle size distribution was analyzed by laser diffraction. Solid state characterization (for polymorphic form and purity) was performed by high pressure liquid chromatography (HPLC), X-ray powder diffraction (XRPD), and differential scanning calorimetry (mDSC). Water content was determined by the Karl Fischer method.

[7] = inhaled 0.0360 mg/kg/day once a day, trough day 5
[8] = inhaled 1.0000 mg/kg/day once a day, trough day 5

Compound: CO[C@H]1C[C@@H]2CC[C@@H](C)[C@@](O)(O2)C(=O)C(=O)N2CCCC[C@H]2C(=O)O[C@H]([C@H](C)C[C@@H]2CC[C@@H](O)[C@H](OC)C2)CC(=O)[C@H](C)/C=C(\C)[C@@H](O)[C@@H](OC)C(=O)[C@H](C)C[C@H](C)/C=C/C=C/C=C/1C [Rapamycin, (3 S,6R,7E,9R,10R,12R,14S,15E,17E,19E,21S,23 S,26R,27R,34aS)-9,10,12,13,-14,21,22,23,24,25,26,27,32,33,34,34a-hexadecahydro-9,27-dihydroxy-3-[(1R)-2-[(1S,3R,4R)-4-hydroxy-3-methoxycyclohexyl]-1-methylethyl]-10,21-dimethox-y-6,8,12,14,20,26-hexamethyl-23,27-epoxy-3H-pyrido[2,1-c][1,4]oxaazacyclohentriacontine-1,5,11,28,29(4H,6H,31H)-pentone]
- S6 phosphorylation [1]: potently inhibits S6 phosphorylation
- Rapamycin in Blood [2, 7]: 4 ng/mL
- Rapamycin in Lung [2, 7]: 87 ng/g
- Rapamycin in Blood [2, 8]: 746 ng/mL
- Rapamycin in Lung [2, 8]: 17163 ng/g
- Rapamycin in Lung ([2]; inhaled 1.00 mg/kg/day, 12 hrs after a single dose): 14831 ng/g
- lung toxicity [3]: pulmonary toxicity, usually in the form of interstitial pneumonitis
- S6 phosphorylation in lung tissue [4]: Inhibits S6 Phosphorylation
- Rapamycin in Blood [5]: 31 ng/mL
- Rapamycin in Lung [5]: 721 ng/g
- PSD Dv10 ([6]; jet milling): 1.5 μm and 1.51 μm
- PSD Dv50 ([6]; jet milling): 2.7 μm and 2.74 μm
- PSD Dv90 ([6]; jet milling): 4.9 μm and 4.91 μm
- PSD Dv10 ([6]; wet polishing): 1.51 μm
- PSD Dv50 ([6]; wet polishing): 2.74 μm
- PSD Dv90 ([6]; wet polishing): 5.0 μm and 4.91 μm
